The data set can be described thus: in vivo. More on the design: species or system mice. To be noted: mouse, sc. On the procedure:
The preferred mode of administration of these compounds is subcutaneously. With subcutaneous administration, however, many of the compounds show lethal toxicity at very high dosage amounts. Thus, it is also possible to administer these compounds peritoneally. Compounds which are subcutaneously active are generally peritoneally active at higher doses. Further, none of the compounds administered peritoneally have shown lethal toxicity at dosages up to 400 mg/kg.
The compounds of the present invention were evaluated biologically in vivo with groups of 5 mice at various dose levels. Unless otherwise indicated, the data are for subcutaneous administration. Dose levels marked with an asterisk are for peritoneal administration in a HEC+T medium. In addition, Table 2 present results of peritoneal administration with substituted quanylhydrazones. The biological evaluation was done according to a standard protocol based on the method described by Rane et al., Amer. J. Trop. Med Hyg. 25:395 (1976).

The structures appear in SMILES notation.

As to `Cc1ccc2n(c1)cc(-c1ccc(C=NNC3=NCCCN3)cc1)[n+]2C` [2-(3,4,5,6-tetrahydropyrimidyI)hydrazone of 1,6-dimethyl-2-(4'-formylphenyl)imidazo[1,2-a]-pyridinium bromide], the MTD is roughly 100 mg/kg.

Values taken from patent publication US5204352A, “Compounds exhibiting anti-parasitic activity and a method for their use” (The United States of America as represented by the …, priority 1987, dated 1993).
